US10111854B2, “Synthesis and use of amine-containing flavonoids as potent anti-leishmanial agents” (The Hong Kong Polytechnic University, priority 2014, dated 2018)
Converted amounts (≈) assume the structure as drawn. Where two headings read alike, the source gives them in different places.

What was measured:
[1] = test system: L. donovani (LdAG83) promastigotes; assay: Anti-promastigote activity, wild type L. donovani LdAG83; format: cell-based; conditions: Leishmania donovani; printed in HU3 column; footnote *: wild type LdAG83 used instead of HU3
[2] = test system: peritoneal elicited macrophages (PEM); assay: Cytotoxicity, peritoneal elicited macrophages (PEM); format: cell-based, mouse; conditions: mouse
[3] = Bioavailability study of flavonoid dimer 39, oral feeding vs i.v.; format: in vivo, Balb/c mice; conditions: in 50% PEG, 30 minutes
Description: Amine-linked flavonoid dimers are disclosed in prior studies to be sparingly soluble in aqueous medium. Their poor oral bioavailability is confirmed by in vivo study in mice. […] Plasma concentration of 39 was determined 30 minutes after oral feeding or i.v. administration. […] Such low bioavailability precluded 39 from being used as an oral antileishmanial agent in the future.

Water solubility = format: physicochemical
Text: In terms of physicochemical properties, all flavonoid monomers listed as active against either L. amazonensis (Table 3A) or L. donovani (Table 3B) are smaller than 39, and have fewer H-bond donors and acceptors. They also have a lower calculated ACDLogP (1.978 to 4.537) than 39 (5.104), except FM05 (5.011), FM17 (5.101) and FM19 (5.451). The lower ACDLogP values mean more water soluble; better partition between hydrophilic and hydrophobic phases and potentially easier to be absorbed orally. Indeed, these flavonoid monomers are highly water soluble (up to about 40 mg/mL of the hydrochloride salt) whereas 39 is not (up to about 4 mg/ml).

[4] = test system: L. amazonensis LV78 promastigotes; assay: Anti-promastigote activity (MTS assay), L. amazonensis LV78; format: cell-based; conditions: Leishmania amazonensis, 72 hours
Method in brief: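 Promastigotes (1×10^5 per well) in Schneider's medium pH 6.9 with 10% FBS, exposed to serial compound concentrations for 72 h at 27 °C. Viability by MTS/PMS reduction over 4 h, OD 490 nm; IC50 derived.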

[5] = test system: L. braziliensis UA847 amastigotes; assay: Anti-amastigote activity in infected PEM, L. braziliensis UA847; format: cell-based; conditions: Leishmania braziliensis, 72 h, 3 days, Giemsa, read-out: Anti-amastigote activity IC50, L. baziliensis UA847
Method in brief: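 Macrophages elicited from mouse peritoneum were allowed to adhere overnight, then infected with late-log promastigotes at a 20:1 ratio at 37 °C. After removal of non-internalized parasites, cells were incubated with compound for 3 days. Amastigote burden was scored microscopically after Giemsa staining.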

[6] = test system: L. amazonensis promastigotes; assay: Mitochondrial membrane potential (rhodamine 123) and survivors (MTS) of promastigotes; format: cell-based; conditions: for viability at 10 µM: Leishmania amazonensis, read-out: % of viable cells (MTS)
Description: 1×10^7 promastigotes were seeded into each well of 6-well plate. The promastigotes were incubated with different concentrations (0, 1.25, 2.5, 5 and 10 μM) of FM09 for 24 and 48 hr, respectively. After incubation, promastigotes were washed two times with 1×PBS and resuspended with 1000 μL of supplemented Schneider's Insect media containing 10 μg/mL of rhodamine 123 in an Eppendorf. The promastigotes were incubated with rhodamine 123 at room temperature for 40 min with shaking. After incubation, promastigotes were washed one time with cold 1×PBS and then re-suspended with 100 μL of 1×PBS. The fluorescent level of rhodamine 123 was measured with a microplate reader (excitation: 485 nm and emission: 520 nm).
L. amazonensis promastigotes were cultivated in different concentration (0, 1.25, 2.5, 5 and 10 μM) of FM09 for 24 hr or 48 hr. The promastigotes were washed and exposed to rhodamine 123 (10 μg/mL) for 40 min. The level of rhodamine 123 accumulation was measured at 520 nm using 485 nm as an excitation wavelength. 0.2% DMSO was used as a solvent control. The values were presented as mean±standard error of mean.

[7] = Pharmacokinetics study of FM09, FM09h and FM05b, iv and oral; format: in vivo, Balb/c mice; conditions: 50 mg/kg oral
Description: Animals were sacrificed at the indicated time point and plasma level of the corresponding flavonoids were determined using LC-MSMS. IC50 of corresponding flavonoids are indicated. Bioavailability (F) was calculated by dividing the dose-adjusted area under curve (AUC) of that of orally-fed over intravenously administered animals.

SMILES | IC50 [1] [nM] | IC50 [2] [nM] | Plasma level after oral feeding relative to i.v. group [3] [%] | solubility (Water solubility) [µg/mL] | IC50 [4] [nM] | IC50 [5] [nM] | Mitochondrial potential (rhodamine 123 accumulation) ([6]; 0-10 μM, 24 hr and 48 hr, dose-dependent) | % of survivors (MTS) ([6]; 1.25 μM, 24 hr and 48 hr) | % of survivors (MTS) ([6]; 2.5 μM, 24 hr and 48 hr) | % of survivors (MTS) ([6]; 5 μM, 24 hr) [%] | % of survivors (MTS) ([6]; 5 μM, 48 hr) [%] | viability at 10 µM ([6]; 24 hr) [%] | viability at 10 µM ([6]; 48 hr) [%] | Clearance from plasma after oral feeding [7] | bioavailability ([7]; Balb/c, mouse, plasma, 10 mg/kg iv, dose-adjusted AUC oral over iv, read-out: Bioavailability (F)) [%]
O=c1cc(-c2ccc(OCCOCCN(CCOCCOc3ccc(-c4cc(=O)c5ccccc5o4)cc3)Cc3ccncc3)cc2)oc2ccccc12 [compound 39] | 200 ± 30 | > 88000 | < 1 | ~4000 (≈ 5.52 mM) |  |  |  |  |  |  |  |  |  |  | 
O=c1cc(-c2ccc(OCCOCCN(Cc3ccccn3)Cc3ccccn3)cc2)oc2ccccc12 [FM09, 2-(4-(2-(2-(bis(pyridin-2-ylmethyl)amino)ethoxy)ethoxy)phenyl)-4H-chromen-4-one] |  |  |  |  | 1000 ± 300 | 600 ± 100 | drop of mitochondrial potential | about 100% | about 100% | 68 | 88 | 29 | 23 | rapidly cleared | 14
